From PubChem BioAssay (NCI)
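How tested: cells in 96-well plates exposed to compound for 48 hours at five concentrations. GI50 is the concentration that inhibits growth by half. TGI: concentration producing complete growth inhibition.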

Legend:
Experiment in all cases: inhibition of tumour cell growth, NCI panel, 48 h
[1] = tested on: RXF 393 renal
[2] = tested on: NCI-H226 lung
[3] = tested on: SNB-75 CNS
[4] = tested on: K-562 leukemia
[5] = tested on: EKVX NSCLC
[6] = tested on: COLO 205 colon
[7] = tested on: SK-MEL-5 melanoma
[8] = tested on: KM12 colon
[9] = tested on: SF-268 CNS
[10] = tested on: SN12C renal
[11] = tested on: UACC-62 melanoma
[12] = tested on: MDA-MB-435
[13] = tested on: BT-549 breast
[14] = tested on: HS 578T breast

SMILES	TGI [1] [µM]	TGI [2] [µM]	TGI [3] [µM]	TGI [4] [µM]	TGI [5] [µM]	TGI [6] [µM]	TGI [7] [µM]	TGI [8] [µM]	TGI [9] [µM]	TGI [10] [µM]	TGI [11] [µM]	TGI [12] [µM]	TGI [13] [µM]	TGI [14] [µM]	GI50 [13] [µM]
CC(C)(C)c1cc(Oc2ccc(C#N)c(C#N)c2)cc(C(C)(C)C)c1	> 100	> 100	> 100	> 100	> 100	> 100	> 100	> 100	> 100	> 100	> 100				
COc1ccc2[nH]c3c(C)c4ccnc(NCCCN(C)CCCN)c4c(C)c3c2c1		0.223	0.0976	> 100	0.538	0.253	0.37	0.809		0.257	0.479	0.401	3.61		
Cc1ccc(S(=O)(=O)Nn2c(C)cc3ccc(S(=O)(=O)Nc4ccccc4[N+](=O)[O-])cc3c2=O)cc1		> 100	> 100	> 100	> 100	44.1		> 100	> 100	> 100	> 100	> 100	> 100	> 100	
CC(=O)C1=C(C)N(c2ccc(C)cc2)C2(O)C=CC(=O)C3=C(O)c4ccccc4C(=O)C312 (centres undefined)	> 100	64.4	49.9	> 100	61.2	> 100	26.3	55.1	62.4	36.9	27.4		38.9	> 100	
O=[N+]([O-])c1ccc(OP(=O)(O)OCC2OC(CP(=O)(O)O)C(O)C2O)cc1 (centres undefined)	> 100			> 100	> 100	> 100	> 100	> 100	> 100	> 100	> 100	> 100	> 100	> 100	
COc1ccccc1NC(=O)CC(=O)n1nc(-c2ccccc2)c(N=Nc2ccccc2[N+](=O)[O-])c1-c1ccccc1	> 100	> 100	> 100	> 100	> 100	> 100	> 100	> 100	> 100	> 100	> 100				
O=S(=O)(c1ccccc1)n1cnc(CCc2ccccc2)n1	> 100	> 100	> 100	> 100		> 100	> 100	> 100	> 100	> 100	> 100				
Cc1no[n+]([O-])c1/C=N/NS(=O)(=O)c1ccccc1	> 100			> 100	> 100	> 100	> 100	> 100	> 100	> 100	> 100				
CC(=O)N1N=C(c2ccccc2Nc2ccccc2C2=NN(C(C)=O)C(c3ccccc3)O2)OC1c1ccccc1 (centres undefined)	> 100	> 100		> 100	> 100	> 100	> 100			> 100	> 100	> 100	> 100		
CN1C(=O)CN=C(c2ccccc2F)c2cc(N=C=S)ccc21	87.7		> 100		> 100			> 100	> 100	> 100	> 100	> 100	> 100	> 100	
C=C(C)C1Cc2c(cc(OC)c3c(=O)c4ccccc4n(C)c23)O1 (centres undefined)	> 100	> 100	> 100	> 100	> 100	> 100	> 100	> 100	> 100	> 100	> 100				
C[N+](C)(C)CC(=O)N/N=C/c1oc(-c2cccc([N+](=O)[O-])c2)c(-c2cccc([N+](=O)[O-])c2)c1[N+](=O)[O-]	> 100				> 100	> 100	> 100		> 100	> 100	> 100				
CNC(=O)C1CCC(=O)N1CN(C(C)=O)c1ccccc1 (centres undefined)	> 100	> 100	> 100	> 100	> 100	> 100	> 100	> 100	> 100	> 100	> 100	> 100		> 100	
CC(C)(C)C(=O)CC(=O)C(F)(F)C(F)(F)C(F)(F)F.CC(C)(C)C(=O)CC(=O)C(F)(F)C(F)(F)C(F)(F)F.CC(C)(C)C(=O)CC(=O)C(F)(F)C(F)(F)C(F)(F)F.[Er]		> 100	> 100	> 100	96.8	> 100		> 100	> 100	> 100	> 100	> 100	> 100	> 100	> 100
O=C(Cc1nc2ccc(C(=O)c3ccccc3)cc2[nH]c1=O)C(=O)Nc1ccc(C(F)(F)F)cc1[N+](=O)[O-]		> 100	> 100	> 100	> 100	> 100	> 100	> 100	> 100	> 100	> 100				
CC(=O)C(CN(C)Cc1ccccc1)C(c1ccccc1)c1c(O)c2ccccc2oc1=O (centres undefined)	> 100	99.5	> 100	> 100	> 100	> 100	> 100	> 100	> 100	> 100	> 100				
OC1=CN=C(C2CC2)Oc2ccccc21	> 100	> 100	> 100	> 100	> 100	> 100	> 100	> 100	> 100	> 100	> 100				
Cc1ccc(S(=O)(=O)C(C#N)c2nc3ccccc3nc2N2CCOCC2)cc1 (centres undefined)		> 100	> 100		> 100	> 100	> 100	38.2	71.1	96.4	28.5				
COC(=N)c1ncn(Cc2ccccc2)c1N	> 100	> 100	> 100	> 100	> 100	> 100	> 100	> 100	> 100	> 100	> 100	> 100		> 100	

SMILES	TGI [1] [µM]	TGI [2] [µM]	TGI [3] [µM]	TGI [4] [µM]	TGI [5] [µM]	TGI [6] [µM]	TGI [7] [µM]	TGI [8] [µM]	TGI [9] [µM]	TGI [10] [µM]	TGI [11] [µM]	TGI [12] [µM]	TGI [13] [µM]	TGI [14] [µM]	GI50 [13] [µM]
CSC1=N/C(=C\c2ccccc2)C(=O)N1CN1CCOCC1		> 100	> 100	> 100	> 100	> 100	> 100	> 100	> 100	> 100	> 100	> 100		> 100	
CCOC(=O)c1ncn2c1[nH]c(=O)c1ccccc12	> 100	> 100	> 100	> 100	> 100	> 100	> 100	> 100	> 100	> 100	> 100				
Cc1ccc(O)c(-c2cc(-c3ccccc3)nc(/N=C\c3ccccc3)n2)c1		> 100	40.9	> 100	> 100		> 100	> 100	> 100	> 100	48.6	> 100	19.2	79.8	
Cc1cc(O)c2c(c1)C(=O)C=C(Br)C2=O		34.8	31	3.38	> 61.2	19.2	27.4	> 55.8	98.9	31	32.4	27.6	30.6	35.6	
O=C(OCC(Cl)(Cl)Cl)N1CC[C@@H](C2CCCCC2)C1	37.1		48.7	50.1	51.7	56.3	36.6	31.8	34.3	> 100	85.5		> 100		
O=[N+]([O-])c1ccc(/C=N/n2c(CCc3n[nH]c(=S)n3/N=C/c3ccc([N+](=O)[O-])o3)n[nH]c2=S)o1	32.1	> 100		> 100	> 100		33.3	64.4	50.7			35.3		62.2	
CN(C)C=NCc1ccc2c(c1)OCO2	> 100	> 100	> 100	> 100	> 100	> 100	> 100	> 100	> 100	> 100	> 100	> 100		> 100	
COC1=CCC2=C(CCN(C(=O)C3CC3)C2Cc2ccc(OC)c(O)c2)C1 (centres undefined)	59.5	> 100	67.4	> 100	> 100	> 100	> 100	> 100	> 100	> 100	> 100	68.8		> 100	
CC1(C)CC(=O)C(CC2C(=O)c3ccccc3C2=O)C(=O)C1C(=O)C(=O)Nc1cccc2ccc(O)cc12 (centres undefined)		> 100	> 100	> 100	> 100	> 100	> 100	> 100	> 100	> 100	> 100	> 100	> 100	> 100	
N#Cc1nc(-c2ccccc2O)oc1N	> 100			> 100	> 100		> 100	> 100	> 100	> 100	> 100	> 100		> 100	
CCOC(=O)C1=COC(C)(C)CC1=O	> 100		> 100	> 100	> 100	> 100	> 100	> 100	> 100	> 100	> 100	> 100	> 100	> 100	
c1csc(-c2sc(-c3ccsc3)cc2Cc2ccsc2)c1	> 10		> 10	> 10	> 10	> 10	> 10	> 10	> 10	> 10	> 10	> 10			
Cc1ccc([S+](c2ccccc2)c2cc(C)ccc2C)cc1 (centres undefined)			2.9	> 100	> 100	61.2	3.91	> 100	> 100	46.3	> 100				
O=C(Nc1ccc(Cl)cc1Cl)c1cc2nc3ccccc3c(=O)n2c2ccccc12	> 10			> 10	> 10		> 10	> 10	> 10		> 10	> 10	> 10	> 10	
CC(=O)[C@H]1[C@@H](OCc2ccccc2)O[N+]([O-])=C(C)[C@@H]1c1ccccc1	34.2	> 100	> 100	38	> 100	> 100	> 100	> 100	> 100		> 100	> 100		72.4	
CC12OC3(C(O)C1O)C(C(=O)O[C@H]3CO[Si](C)(C)C(C)(C)C)C2S(=O)(=O)c1ccccc1 (some centres undefined)		58.3	90.4	> 100	> 100			> 100	> 100	> 100	36	> 100		> 100	
Cc1ccccc1C(=O)NC(O)(C(F)(F)F)C(F)(F)F	> 100	> 100	3.17	> 100	> 100	> 100	> 100	> 100	> 100	> 100		> 100		> 100	
COC(=O)NN/C=C(\C=Nc1ccccc1)[N+](=O)[O-]	> 100			> 100	> 100	> 100	> 100		> 100	> 100	> 100				
